IC50 data for ten compounds are collected here from BindingDB's records for PubMed 36793429 (Therachem Research Medilab, 2023).

Each structure is given as a SMILES string.

In this experiment the target is Coagulation factor XI (Homo sapiens) (UniProt P03951). In words: Inhibition of human factor 11a using GPR-AFC as substrate preincubated for 30 mins followed by substrate addition and measured after 60 mins by fluorescence based analysis.
Sequence of Coagulation factor XI (Homo sapiens) (P03951 whole entry, looked up): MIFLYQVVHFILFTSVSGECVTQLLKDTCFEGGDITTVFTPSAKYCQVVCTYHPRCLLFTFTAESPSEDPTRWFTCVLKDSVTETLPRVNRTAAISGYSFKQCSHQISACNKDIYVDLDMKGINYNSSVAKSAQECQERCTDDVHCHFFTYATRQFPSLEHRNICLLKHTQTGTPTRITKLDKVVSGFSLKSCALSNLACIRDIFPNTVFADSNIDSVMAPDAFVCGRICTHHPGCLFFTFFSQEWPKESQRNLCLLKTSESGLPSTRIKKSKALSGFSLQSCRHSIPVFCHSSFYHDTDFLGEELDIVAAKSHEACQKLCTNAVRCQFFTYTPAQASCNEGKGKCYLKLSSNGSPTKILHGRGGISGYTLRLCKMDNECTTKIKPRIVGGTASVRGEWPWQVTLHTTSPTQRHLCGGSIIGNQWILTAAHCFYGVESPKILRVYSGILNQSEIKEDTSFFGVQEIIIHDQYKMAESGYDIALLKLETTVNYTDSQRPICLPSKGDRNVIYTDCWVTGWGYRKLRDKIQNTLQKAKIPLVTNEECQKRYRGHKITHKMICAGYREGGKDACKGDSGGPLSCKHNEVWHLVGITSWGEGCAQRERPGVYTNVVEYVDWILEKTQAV
As a reminder, the IC50 is the point on the concentration scale where inhibition reaches its midpoint. Low values mean greater potency, high ones weaker potency. Take `O=C1Nc2ccc(Cl)c(F)c2[C@]2(CCN(c3cncc(C(=O)NCc4ccc(Cn5ccccc5=O)nc4)c3)C2)O1`: the IC50 was found to be 10 µM. In other words, the double-digit micromolar range.

Compound `N#CC1(F)CN(Cc2ccc(CNC(=O)c3cnnc(N4CC[C@]5(C4)OC(=O)Nc4ccc(Cl)c(F)c45)c3)cc2)C1` registered an IC50 of 10 µM. The same measure for `O=C1Nc2ccc(Cl)c(F)c2[C@]2(CCN(c3cncc(C(=O)NCc4ccc(Cn5ccccc5=O)nc4)n3)C2)O1`: 10 µM. Compound `Cc1cnn(Cc2ccc(CNC(=O)c3cnnc(N4CC[C@]5(C4)OC(=O)Nc4ccc(Cl)c(F)c45)c3)cc2)c1` gave an IC50 of 10 µM. This lies in the double-digit micromolar range. The value for `CN1CCCC1c1ccc(CNC(=O)c2cnnc(N3CC[C@]4(C3)OC(=O)Nc3ccc(Cl)c(F)c34)c2)cc1` (stereo not given in full) was 10 µM.

`C[C@H]1CCN(c2ccc(CNC(=O)c3cnnc(N4CC[C@]5(C4)OC(=O)Nc4ccc(Cl)c(F)c45)c3)cn2)C1` gave an IC50 of 7.44 µM. As for `C[C@H]1CCN(c2ccc(CNC(=O)c3cncc(N4CC[C@]5(C4)OC(=O)Nc4ccc(Cl)c(F)c45)n3)cn2)C1`, the IC50 worked out at 10 µM.

`O=C1Nc2ccc(Cl)c(F)c2[C@]2(CCN(c3cncc(C(=O)NCc4ccc(N5CCC5)nc4)n3)C2)O1` displayed an IC50 of 10 µM. The value for `CN1CCN(c2ccc(CNC(=O)c3cncc(N4CC[C@]5(C4)OC(=O)Nc4ccc(Cl)c(F)c45)n3)cn2)CC1` was 10 µM; that for `Cc1cnn(Cc2ccc(CNC(=O)c3cncc(N4CC[C@]5(C4)OC(=O)Nc4ccc(Cl)c(F)c45)c3)cn2)c1` was 10 µM.
